Test results reported in patent publication US20260183321A1, “TREATMENT OF CORONAVIRUS INFECTIONS WITH ANTIMICROBIAL PHOSPHOLIPID COMPOSITIONS” (NATIONAL JEWISH HEALTH, priority 2022, published 2026).

How the values were obtained:
[1] = tested on: B.1.617.2 (delta variant); assay type: cell-based, SARS-CoV-2; details: healthy control subjects n=4, m.o.i. 0.1, 48 hrs; 10 mg/ml POPG, 4 mg/ml PI, prophylactic
[2] = tested on: SARS-CoV-2 variant, B.1.351; assay type: cell-based
[3] = tested on: B1.1.529 (omicron variant); assay type: cell-based, SARS-CoV-2; details: healthy control subjects n=4, m.o.i. 0.1, 48 Hr; 10 mg/ml POPG, 4 mg/ml PI, prophylactic

| Molecule | B.1.617.2 (delta variant) replication [1] | attenuation of B.1.351 replication [2] | B.1.1.529 (Omicron variant) replication [3] |
| --- | --- | --- | --- |
| phosphatidylinositol [PI] | inhibited | 70% | inhibited |
| CCCCCCCC/C=C\CCCCCCCC(=O)O[C@H](COC(=O)CCCCCCCCCCCCCCC)COP(=O)(O)OCC(O)CO (stereo partly drawn) [POPG, palmitoyl-oleoyl-phosphatidylglycerol] | inhibited | 50% | inhibited |
